Assay results: patent US7230116B2, “Pyrazolyl-substituted heterocycles and their use as phytosanitary products” (Bayer CropScience, AG, priority 2001, dated 2007)
Each block holds one compound with its values, some of them ahead of it.

Tests used:
[1] = system: cotton aphid (Aphis gossypii); test: Aphis gossypii test (cotton leaves dipped); type: in vivo; conditions: 500 ppm active compound
Procedure: (§1) Aphis gossypii Test [table] To produce a suitable preparation of active compound, 1 part by weight of active compound is mixed with the stated amounts of solvent and emulsifier, and the concentrate is diluted with emulsifier-containing water to the desired concentration. Cotton leaves (Gossypium hirsutum) which are heavily infested by the cotton aphid (Aphis gossypii) are treated by being dipped into the preparation of active compound of the desired concentration. After the desired period of time, the kill in % is determined. 100% means that all aphids have been killed; 0% means that none of the aphids have been killed.

[2] = system: peach aphid (Myzus persicae); test: Myzus test (cabbage leaves dipped); type: in vivo; conditions: 500 ppm active compound
Procedure: as §1, with “Myzus” for “Aphis gossypii”, “Cabbage” for “Cotton”, “(Brassica oleracea)” for “(Gossypium hirsutum)”, “peach” for “cotton”, “(Myzus persicae)” for “(Aphis gossypii)”

[3] = system: larvae of the mustard beetle (Phaedon cochleariae); test: Phaedon larvae test; type: in vivo; conditions: 500 ppm active compound
Procedure: (§2) Phaedon larvae Test [table] To produce a suitable preparation of active compound, 1 part by weight of active compound is mixed with the stated amounts of solvent and emulsifier, and the concentrate is diluted with emulsifier-containing water to the desired concentration. Cabbage leaves (Brassica oleracea) are treated by being dipped into the preparation of active compound of the desired concentration and are populated with larvae of the mustard beetle (Phaedon cochleariae) while the leaves are still moist. After the desired period of time, the kill in % is determined. 100% means that all beetle larvae have been killed; 0% means that none of the beetle larvae have been killed.

[4] = system: caterpillars of the diamondback moth (Plutella xylostella); test: Plutella test; type: in vivo; conditions: 500 ppm active compound
Procedure: as §2, with “Plutella” for “Phaedon larvae”, “caterpillars” for “larvae”, “diamondback moth (Plutella xylostella)” for “mustard beetle (Phaedon cochleariae)”, “caterpillars” for “beetle larvae”

[5] = system: caterpillars of the armyworm (Spodoptera frugiperda); test: Spodoptera frugiperda test; type: in vivo; conditions: 500 ppm active compound
Procedure: as §2, with “Spodoptera frugiperda” for “Phaedon larvae”, “caterpillars” for “larvae”, “armyworm (Spodoptera frugiperda)” for “mustard beetle (Phaedon cochleariae)”, “caterpillars” for “beetle larvae”

[6] = system: greenhouse red spider mite (Tetranychus urticae); test: Tetranychus test (OP-resistant/dip treatment); type: in vivo; conditions: 100 ppm active compound, OP-resistant, dip treatment
Procedure: Tetranychus Test (OP-Resistant/Dip Treatment)
To produce a suitable preparation of active compound, 1 part by weight of active compound is mixed with the stated amounts of solvent and emulsifier, and the concentrate is diluted with emulsifier-containing water to the desired concentration.
Bean plants (Phaseolus vulgaris) which are heavily infested by all stages of the greenhouse red spider mite (Tetranychus urticae) are treated by being dipped into a preparation of active compound of the desired concentration.
After the desired period of time, the effect in % is determined. 100% means that all spider mites have been killed; 0% means that none of the spider mites have been killed.

Abutilon = test: Post-emergence test, greenhouse; type: in vivo; conditions: 250 g ai/ha, after three weeks
Procedure: (§3) Post-Emergence Test [table] To produce a suitable preparation of active compound, 1 part by weight of active compound is mixed with the stated amount of solvent, the stated amount of emulsifier is added and the concentrate is diluted with water to the desired concentration. Test plants of a height of 5-15 cm are sprayed with the preparation of active compound such that the particular amounts of active compound desired are applied per unit area. The concentration of the spray liquor is chosen such that the particular amounts of active compound desired are applied in 1000 l of water/ha. After three weeks, the degree of damage to the plants is rated in % damage in comparison to the development of the untreated control. The figures denote: [table]

Alopecurus = test: Post-emergence test, greenhouse; type: in vivo; conditions: after three weeks
Procedure: as §3

Avena fatua = test: Post-emergence test, greenhouse; type: in vivo; conditions: after three weeks
Procedure: as §3

Bromus = test: Post-emergence test, greenhouse; type: in vivo; conditions: after three weeks
Procedure: as §3

Lolium = test: Post-emergence test, greenhouse; type: in vivo; conditions: after three weeks
Procedure: as §3

Oilseed rape = test: Post-emergence test, greenhouse; type: in vivo; conditions: 125 g ai/ha, after three weeks
Procedure: as §3

Setaria = test: Post-emergence test, greenhouse; type: in vivo; conditions: after three weeks
Procedure: as §3

Sugarbeet = test: Post-emergence test, greenhouse; type: in vivo; conditions: 250 g ai/ha, after three weeks
Procedure: as §3

Viola = test: Post-emergence test, greenhouse; type: in vivo; conditions: 125 g ai/ha, after three weeks
Procedure: as §3

Amaranthus = test: Post-emergence test, greenhouse; type: in vivo; conditions: after three weeks
Procedure: as §3

Sinapis = test: Post-emergence test, greenhouse; type: in vivo; conditions: 250 g ai/ha, after three weeks
Procedure: as §3

[7] = logP determination by HPLC (reversed-phase C18), EEC Directive 79/831 Annex V.A 8; type: physicochemical; conditions: HPLC reversed-phase column (C 18), 43° C.; for chromatographic logP: reversed-phase C18 HPLC column, pH 2.3
Procedure: The logP values given for the Examples (I-2-A-a) were determined in accordance with EEC Directive 79/831 Annex V.A 8 by HPLC (High Performance Liquid Chromatography) using a reversed-phase column (C 18). Temperature: 43° C. • (a) Mobile phases for the determination in the acidic range: 0.1% aqueous phosphoric acid, acetonitrile; linear gradient from 10% acetonitrile to 90% acetonitrile. • (b) Mobile phases for the determination in the neutral range: 0.01 molar aqueous phosphate buffer solution, acetonitrile; linear gradient from 10% acetonitrile to 90% acetonitrile. Calibration was carried out using unbranched alkan-2-ones (of 3 to 16 carbon atoms) with known logP values (determination of the logP values by the retention times using linear interpolation between two successive alkanones).

logP (pH 2.3) [7]: 2.46
SMILES: CCOC1CCC2(CC1)OC(=O)C(n1nc(-c3ccc(Cl)cc3)cc1C)=C2O (centres unmarked) [Example I-2-A-a-4]

logP (pH 2.3) [7]: 2.35
SMILES: Cc1cc(-c2ccc(Cl)cc2)nn1C1=C(O)C2(Cc3ccccc3C2)OC1=O [Example I-2-A-a-5]

logP (pH 2.3) [7]: 1.49
SMILES: Cc1cc(-c2ccc(Cl)cc2)nn1C1=C(O)C2(CCCOC2)OC1=O (centres unmarked) [Example I-2-A-a-6]

logP (pH 2.3) [7]: 1.55
SMILES: Cc1cc(-c2ccc(Cl)cc2)nn1C1=C(O)C2(CCOCC2)OC1=O [Example I-2-A-a-7]

logP (pH 2.3) [7]: 2.70
SMILES: CCC1(C)OC(=O)C(n2nc(-c3ccc(Br)cc3)cc2C)=C1O (centres unmarked) [Example I-2-A-a-8]

logP (pH 2.3) [7]: 1.50
SMILES: Cc1cc(-c2ccccc2)nn1C1=C(O)C(C)(C(C)C)OC1=O (centres unmarked) [Example I-2-A-a-9]

logP (pH 2.3) [7]: 2.92
SMILES: Cc1cc(-c2cccc(C(F)(F)F)c2)nn1C1=C(O)C(C)(CC(C)(C)C)OC1=O (centres unmarked) [Example I-2-A-a-10]

chromatographic logP [7]: 4.32
SMILES: Cc1cc(-c2ccc(Cl)cc2)nn1C1=C(OC(=O)C(C)(C)C)C2(CCCOC2)OC1=O (centres unmarked) [Example I-2-A-b-1]

chromatographic logP [7]: 4.11
SMILES: CCOC(=O)C1(OC(=O)Cn2nc(-c3ccc(Cl)cc3)cc2C)CCC(OC)CC1 (centres unmarked) [Example III-A-1]

Second part, the compound before the results:

SMILES: COC1CCC2(CC1)NC(=O)C(n1nc(-c3ccc(Cl)cc3)cc1C)=C2O (single isomer, unassigned) [Example I-1-A-a-4]
Kill rate in % after 6d [1]: 95%
Kill rate in % after 6d [2]: 90%
Kill rate in % after 7d [3]: 100%
Kill rate in % after 7d [4]: 100%
Kill rate in % after 7d [5]: 100%
Kill rate in % after 7d [6]: 95%
% damage, Abutilon (Abutilon): 80%
% damage, Alopecurus (Alopecurus; 125 g ai/ha): 100%
% damage, Alopecurus (Alopecurus; 250 g ai/ha): 100%
% damage, Avena fatua (Avena fatua; 125 g ai/ha): 100%
% damage, Avena fatua (Avena fatua; 250 g ai/ha): 100%
% damage, Bromus (Bromus; 125 g ai/ha): 100%
% damage, Bromus (Bromus; 250 g ai/ha): 100%
% damage, Lolium (Lolium; 125 g ai/ha): 100%
% damage, Lolium (Lolium; 250 g ai/ha): 100%
% damage, Oilseed rape (Oilseed rape): 0%
% damage, Setaria (Setaria; 125 g ai/ha): 100%
% damage, Setaria (Setaria; 250 g ai/ha): 100%
% damage, Sugarbeet (Sugarbeet): 10%
% damage, Viola (Viola): 100%

SMILES: CCOC(=O)OC1=C(n2nc(-c3ccc(Cl)cc3)cc2C)C(=O)NC12CCC(OC)CC2 (centres unmarked) [Example I-1-A-c-1]
Kill rate in % after 7d [3]: 90%
Kill rate in % after 7d [5]: 100%
Kill rate in % after 7d [6]: 98%
% damage, Abutilon (Abutilon): 95%
% damage, Alopecurus (Alopecurus; 250 g ai/ha): 100%
% damage, Amaranthus (Amaranthus; 250 g ai/ha): 95%
% damage, Avena fatua (Avena fatua; 250 g ai/ha): 100%
% damage, Setaria (Setaria; 250 g ai/ha): 100%
% damage, Sinapis (Sinapis): 80%

SMILES: CCOC(=O)OC1=C(c2c(C)nn(-c3ccc(Cl)cc3)c2C)C(=O)NC12CCC(OC)CC2 (centres unmarked) [Example I-1-B-c-1]
% damage, Alopecurus (Alopecurus; 2000 g ai/ha): 90%
% damage, Amaranthus (Amaranthus; 2000 g ai/ha): 90%
% damage, Avena fatua (Avena fatua; 2000 g ai/ha): 90%
% damage, Setaria (Setaria; 2000 g ai/ha): 95%

SMILES: COC1CCC2(CC1)OC(=O)C(n1nc(-c3ccc(Cl)cc3)cc1C)=C2O (centres unmarked) [Example I-2-A-a-1]
chromatographic logP [7]: 2.05
Kill rate in % after 6d [2]: 90%
Kill rate in % after 7d [6]: 100%

SMILES: Cc1cc(-c2ccc(Cl)cc2)nn1C1=C(O)C2(CCC(C(F)(F)F)CC2)OC1=O (centres unmarked) [Example I-2-A-a-2]
logP (pH 2.3) [7]: 2.74

SMILES: Cc1cc(-c2ccc(Cl)cc2)nn1C1=C(O)C(C)(C)OC1=O [Example I-2-A-a-3]
logP (pH 2.3) [7]: 1.74
